From paper PMC4912453 (Nature chemical biology, 2016)
Changes are numbered by the printed parent chain.

What was measured:
Assay type in all cases: binding
[1] = biological target: T1, DNA polymerase α catalytic subunit (POLA1) (Homo sapiens, UniProt P09884); assay: CD437 fluorescence intensity enhancement and anisotropy titration
T1 sequence (P09884 335-1257): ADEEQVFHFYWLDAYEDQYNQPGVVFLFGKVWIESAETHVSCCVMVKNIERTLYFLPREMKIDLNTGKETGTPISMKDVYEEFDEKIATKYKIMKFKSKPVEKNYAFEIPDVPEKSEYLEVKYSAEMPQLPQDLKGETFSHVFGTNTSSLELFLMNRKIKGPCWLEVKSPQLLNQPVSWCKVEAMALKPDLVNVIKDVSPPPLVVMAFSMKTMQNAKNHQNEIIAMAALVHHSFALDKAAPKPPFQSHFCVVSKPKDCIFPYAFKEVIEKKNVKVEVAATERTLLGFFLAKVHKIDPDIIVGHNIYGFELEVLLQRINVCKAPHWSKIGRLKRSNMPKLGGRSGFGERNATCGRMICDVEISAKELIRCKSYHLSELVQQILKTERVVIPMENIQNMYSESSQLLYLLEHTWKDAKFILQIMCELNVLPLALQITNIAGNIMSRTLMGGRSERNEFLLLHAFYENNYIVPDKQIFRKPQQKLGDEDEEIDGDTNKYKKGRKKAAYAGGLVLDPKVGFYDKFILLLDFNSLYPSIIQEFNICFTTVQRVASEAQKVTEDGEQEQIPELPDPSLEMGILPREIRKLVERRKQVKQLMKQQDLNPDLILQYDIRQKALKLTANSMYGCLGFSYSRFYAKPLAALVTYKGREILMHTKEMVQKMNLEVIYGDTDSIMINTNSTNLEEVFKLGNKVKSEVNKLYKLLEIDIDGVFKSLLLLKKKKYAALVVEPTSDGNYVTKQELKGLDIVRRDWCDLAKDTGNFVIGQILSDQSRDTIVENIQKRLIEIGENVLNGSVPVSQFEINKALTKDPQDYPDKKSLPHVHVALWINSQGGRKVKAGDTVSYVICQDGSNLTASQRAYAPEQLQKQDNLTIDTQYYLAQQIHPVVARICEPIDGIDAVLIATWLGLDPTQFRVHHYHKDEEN

[2] = biological target: T2, DNA polymerase α catalytic subunit (POLA1) (Homo sapiens, UniProt P09884, L764S); assay: CD437 fluorescence intensity enhancement titration
T2 sequence (P09884 335-1257 L764S): T1 sequence (P09884 335-1257) with L430S

[3] = biological target: T3, DNA polymerase α catalytic subunit (POLA1) (Homo sapiens, UniProt P09884, L700S); assay: CD437 fluorescence intensity enhancement titration
T3 sequence (P09884 335-1257 L700S): T1 sequence (P09884 335-1257) with L366S

- Kd [1]: 67 ± 22 nM
- Kd [2]: 94 ± 18 nM
- Kd [3]: < 5 nM
SMILES: O=C(O)c1ccc2cc(-c3ccc(O)c(C45CC6CC(CC(C6)C4)C5)c3)ccc2c1 [CD437, 6-[3-(1-adamantyl)-4-hydroxyphenyl]-2-naphthalene carboxylic acid]
